Measurements published in US20240398849A1, “METHODS FOR THE TREATMENT OF […] WITH CYCLODEXTRINS” (BEREN THERAPEUTICS P.B.C., priority 2022, published 2024).

Tests used:
[1] = system: LDL receptor deficient (LDLR−/−) mice; assay: Serum triglyceride levels in LDLR−/− mouse model after 2 g/kg HPBCD; type: in vivo
Text: LDL receptor deficient (LDLR^−/−) mice were divided into 6 Groups. Prior to the administration of 2 g/kg of HPBCD, Group 1 was fed with normal chow diet (NC) for 5 weeks and Group 2-Group 6 were fed with high-fat (42%), high-cholesterol (1.2%) Western diet (WD) for various durations up to 9 weeks. Experimental scheme and diet schedule is described in FIG. 1A. Mice of Group 1 were further categorized into 3 sub-Groups (e.g., Group 1.1, Group 1.2, and Group 1.3) according to the administration of HPBCD as shown in FIG. 1B. Blood samples were taken from the mouse models, after 5 weeks of feeding and at a certain period of time (e.g., 1 week, 2 weeks, 3 weeks, 4 weeks after 2 g/kg HPBCD treatment), for measurement of triglyceride levels in each model Group. […] (FIG. 2A).

volunteers [2] = assay: Triglyceride levels in volunteers after a single intravenous dose of HPBCD (FIG. 3A); type: in vivo, humans
Description: Twenty-nine volunteers were divided into five groups. Each group was administered an intravenous dose of 50 mg/kg, 250 mg/kg, 500 mg/kg, 1000 mg/kg or 1500 mg/kg of HPBCD as shown in FIG. 3A. Blood samples were taken immediately prior to injection to establish a baseline triglyceride concentration, and at 24 hours (D2) and 48 hours (D3) post injection for measurement of triglyceride levels. […] Overall, triglyceride levels of participants decreased, particularly evident in participants with higher baseline triglyceride concentrations.

volunteers [3] = assay: Separate placebo-controlled study: change in triglyceride levels from baseline in volunteers (FIG. 3B-3D); type: in vivo, humans; conditions: intravenous 500, 1000 or 1500 mg/kg
Description: In a separate study, volunteers were divided into four groups. Each group was administered an intravenous dose of placebo or an intravenous dose of 500 mg/kg, 1000 mg/kg or 1500 mg/kg of HPBCD as shown in FIG. 3B. Blood samples were taken immediately prior to injection to establish a baseline triglyceride concentration, and at 24 hours (left bar) and 48 hours (right bar) post injection. Triglyceride levels are presented as the median average percentage change from baseline. […] The data in FIG. 3B were divided into two groups for further analysis. Group 1 consisted of the portion of the cohort which had baseline triglyceride levels greater than 100 mg/dL. Group 2 had baseline triglyceride levels less than or equal to 100 mg/dL. The average percentage change of triglyceride levels from baseline of Group 1 and Group 2 is shown in FIG. 3C and FIG. 3D respectively. […] This is consistent with the marked reduction (˜30%) in triglyceride levels observed for the one participant in FIG. 3A with a baseline triglyceride level of approximately 425 mg/dL.

- triglyceride levels, median average percentage change from baseline (volunteers [3]; 24 h and 48 h post injection, any tested dose, FIG. 3B): did not increase
Structure (SMILES): CC(O)COC[C@H]1O[C@@H]2O[C@H]3[C@H](O)[C@@H](O)[C@@H](O[C@H]4[C@H](O)[C@@H](O)[C@@H](O[C@H]5[C@H](O)[C@@H](O)[C@@H](O[C@H]6[C@H](O)[C@@H](O)[C@@H](O[C@H]7[C@H](O)[C@@H](O)[C@@H](O[C@H]8[C@H](O)[C@@H](O)[C@@H](O[C@H]1[C@H](O)[C@H]2O)O[C@@H]8COCC(C)O)O[C@@H]7COCC(C)O)O[C@@H]6COCC(C)O)O[C@@H]5COCC(C)O)O[C@@H]4COCC(C)O)O[C@@H]3COCC(C)O (stereo partly drawn) [HPBCD, 2-hydroxypropyl-beta-cyclodextrin]
- triglyceride levels of WD-fed mice after the administration of HPBCD ([1]; Western diet (WD), blood sampled 1-4 weeks after treatment, FIG. 2A): decreased over time
- triglyceride level of NC-fed mice after the administration of HPBCD ([1]; normal chow diet (NC), FIG. 2B): decreased from 24 hours after the administration
- reduction in triglyceride levels (volunteers [2]; one participant in FIG. 3A with baseline triglyceride level of approximately 425 mg/dL): ~30%
- triglyceride levels following administration (safety) (volunteers [2]; volunteers, intravenous 50, 250, 500, 1000 or 1500 mg/kg, 24 h and 48 h post injection, any tested dose, FIG. 3A): did not significantly increase
- triglyceride levels of participants overall (volunteers [2]; volunteers, intravenous 50-1500 mg/kg, 24 h and 48 h post injection, particularly evident with higher baseline triglyceride): decreased
- reduction in triglyceride levels, Group 1 (baseline >100 mg/dL) versus Group 2 (baseline ≤100 mg/dL) (volunteers [3]; 24 h and 48 h, FIG. 3C and 3D): greater reduction in triglyceride levels was observed in participants in Group 1 than those in Group 2
